In patent publication US20240307382A1, “MODULATORS OF THE INTEGRATED STRESS PATHWAY” (Calico Life Sciences LLC, priority 2017, published 2024):

System: HEK293T cells carrying the ATF4 luciferase reporter
Test: ATF4-Luc assay (ATF4 luciferase reporter, tunicamycin-treated cells)
Type: cell-based
Conditions: Homo sapiens, HEK-293T, 1 μg/mL tunicamycin, 7 hours
Experimental: In order to test exemplary compounds of the invention in a cellular context, a stable VWMD cell line was first constructed. The ATF4 reporter was prepared by fusing the human full-length ATF4 5′-UTR (NCBI Accession No. BC022088.2) in front of the firefly luciferase (FLuc) coding sequence lacking the initiator methionine as described in Sidrauski et al (eLife 2013). The construct was used to produce recombinant retroviruses using standard methods and the resulting viral supermatant was used to transduce ITEK293T cells, which were then subsequently selected with puromycin to generate a stable cell line.
HTEK293T cells carrying the ATF4 luciferase reporter were plated on polylysine coated 384-well plates (Greiner Bio-one) at 30,000 cells per well. Cells were treated the next day with 1 μg/mL tunicamycin and 200 nM of a compound of Formula (I) for 7 hours. Luminescence was measured using One Glo (Promega) as specified by the manufacturer. Cells were maintained in DMEM with L-glutamine supplemented with 10% heat-inactivated FBS (Gibco) and Antibiotic-Antimycotic solution (Gibco).
Table 2 below summarizes the EC50 data obtained using the ATF4-Luc assay for exemplary compounds of the invention.

| Structure (SMILES) | EC50 [nM] |
| --- | --- |
| O=C(COc1ccc(Cl)c(F)c1)NC12CCC(NC(=O)c3ccc(OC(F)(F)F)cn3)(C1)C2 [Compound 297, N-{4-[2-(4-chloro-3-fluorophenoxy)acetamido]bicyclo[2.1.1]hexan-1-yl}-5-(trifluoromethoxy)pyridine-2-carboxamide] | < 50 |
| O=C(COc1ccc(Cl)c(F)c1)NC12CCC(NC(=O)c3cc(CO)ccn3)(C1)C2 [Compound 333, N-{4-[2-(4-chloro-3-fluorophenoxy)acetamido]bicyclo[2.1.1]hexan-1-yl}-4-(hydroxymethyl)pyridine-2-carboxamide] | 1000 to 2000 |
| N#CCCc1ccc(C(=O)NC23CC(NC(=O)COc4ccc(Cl)c(F)c4)(C2)C3)nc1 [Compound 335, N-{3-[2-(4-chloro-3-fluorophenoxy)acetamido]bicyclo[1.1.1]pentan-1-yl}-5-(2-cyanoethyl)pyridine-2-carboxamide] | 50 to 250 |
| O=C(COc1ccc(Cl)c(Cl)c1)NC12CC(NC(=O)c3ccc(Cl)cn3)(C1)C2 [Compound 691, 5-chloro-N-{3-[2-(3,4-dichlorophenoxy)acetamido]bicyclo[1.1.1]pentan-1-yl}pyridine-2-carboxamide] | < 50 |
| COc1ccnc(C(=O)NC23CCC(NC(=O)COc4ccc(Cl)c(F)c4)(CC2)C(O)C3)c1 (stereo not drawn) [Compound 924, N-{4-[2-(4-chloro-3-fluorophenoxy)acetamido]-3-hydroxybicyclo[2.2.2]octan-1-yl}-4-methoxypyridine-2-carboxamide] | 1000 to 2000 |
| O=C(COc1ccc(Cl)c(F)c1)NC12CCC(NC(=O)c3ccc(-c4ccc(F)cc4)cn3)(CC1)CC2O (stereo not drawn) [Compound 939, N-{4-[2-(4-chloro-3-fluorophenoxy)acetamido]-3-hydroxybicyclo[2.2.2]octan-1-yl}-5-(4-fluorophenyl)pyridine-2-carboxamide] | 250 to 1000 |
| CCc1cncc(C(=O)NC23CC(NC(=O)COc4ccc(Cl)c(F)c4)(C2)C3)c1 [Compound 948, N-{3-[2-(4-chloro-3-fluorophenoxy)acetamido]bicyclo[1.1.1]pentan-1-yl}-5-ethylpyridine-3-carboxamide] | < 50 |
| CCc1cncc(C(=O)NC23CC(NC(=O)COc4ccc(Cl)c(Cl)c4)(C2)C3)c1 [Compound 949, N-{3-[2-(3,4-dichlorophenoxy)acetamido]bicyclo[1.1.1]pentan-1-yl}-5-ethylpyridine-3-carboxamide] | < 50 |
| O=C(COc1ccc(Cl)c(F)c1)NC12CCC(NC(=O)c3cnc4cc(F)ccc4n3)(CC1)[C@@H](O)C2 [Compound 950, N-{(2S)-4-[2-(4-chloro-3-fluorophenoxy)acetamido]-2-hydroxybicyclo[2.2.2]octan-1-yl}-6-fluoroquinoxaline-2-carboxamide] | < 50 |
| O=C(COc1ccc(Cl)c(F)c1)NC12CC(NC(=O)c3cnc4cc(F)ccc4n3)(C1)C2 [Compound 951, N-{3-[2-(4-chloro-3-fluorophenoxy)acetamido]bicyclo[1.1.1]pentan-1-yl}-6-fluoroquinoxaline-2-carboxamide] | < 50 |
| O=C(COc1ccc(Cl)c(F)c1)NC12CCC(NC(=O)c3cccc(-c4cccc(F)c4)n3)(CC1)CC2O (stereo not drawn) [Compound 952, N-{4-[2-(4-chloro-3-fluorophenoxy)acetamido]-3-hydroxybicyclo[2.2.2]octan-1-yl}-6-(3-fluorophenyl)pyridine-2-carboxamide] | < 50 |
| N#Cc1cnccc1NC12CC(NC(=O)COc3ccc(Cl)c(F)c3)(C1)C2 [Compound 953, 2-(4-chloro-3-fluorophenoxy)-N-{3-[(3-cyanopyridin-4-yl)amino]bicyclo[1.1.1]pentan-1-yl}acetamide] | 50 to 250 |
| O=C(COc1ccc(Cl)c(F)c1)NC12CC(Nc3cccc(-n4ccccc4=O)n3)(C1)C2 [Compound 954, 2-(4-chloro-3-fluorophenoxy)-N-{3-[(2-oxo-2H-[1,2′-bipyridin]-6′-yl)amino]bicyclo[1.1.1]pentan-1-yl}acetamide] | > 2000 |
| O=C(COc1ccc(Cl)c(F)c1)NC12CC(Nc3ccnc(-n4ccnc4)c3)(C1)C2 [Compound 955, 2-(4-chloro-3-fluorophenoxy)-N-(3-{[2-(1H-imidazol-1-yl)pyridin-4-yl]amino}bicyclo[1.1.1]pentan-1-yl)acetamide] | 250 to 1000 |
| O=C(COc1ccc(Cl)c(F)c1)NC12CC(Nc3cccc(N4CCOCC4)n3)(C1)C2 [Compound 957, 2-(4-chloro-3-fluorophenoxy)-N-(3-{[6-(morpholin-4-yl)pyridin-2-yl]amino}bicyclo[1.1.1]pentan-1-yl)acetamide] | 250 to 1000 |
| O=C(COc1ccc(Cl)c(F)c1)NC12CC(Nc3ccc4ncnc(N5CCOCC5)c4c3)(C1)C2 [Compound 958, 2-(4-chloro-3-fluorophenoxy)-N-(3-{[4-(morpholin-4-yl)quinazolin-6-yl]amino}bicyclo[1.1.1]pentan-1-yl)acetamide] | 50 to 250 |
| CN1CCN(c2ncnc3ccc(NC45CC(NC(=O)COc6ccc(Cl)c(F)c6)(C4)C5)cc23)CC1 [Compound 959, 2-(4-chloro-3-fluorophenoxy)-N-(3-{[4-(4-methylpiperazin-1-yl)quinazolin-6-yl]amino}bicyclo[1.1.1]pentan-1-yl)acetamide] | > 2000 |
| COC(=O)c1ccc2nccc(NC34CC(NC(=O)COc5ccc(Cl)c(F)c5)(C3)C4)c2c1 [Compound 960, methyl 4-({3-[2-(4-chloro-3-fluorophenoxy)acetamido]bicyclo[1.1.1]pentan-1-yl}amino)quinoline-6-carboxylate] | < 50 |
| NC(=O)c1cccc(NC23CC(NC(=O)COc4ccc(Cl)c(F)c4)(C2)C3)n1 [Compound 961, 6-({3-[2-(4-chloro-3-fluorophenoxy)acetamido]bicyclo[1.1.1]pentan-1-yl}amino)pyridine-2-carboxamide] | 1000 to 2000 |
| O=C(COc1ccc(Cl)c(F)c1)NC12CC(Nc3cc(N4CCCC4)ccn3)(C1)C2 [Compound 962, 2-(4-chloro-3-fluorophenoxy)-N-(3-{[4-(pyrrolidin-1-yl)pyridin-2-yl]amino}bicyclo[1.1.1]pentan-1-yl)acetamide] | 1000 to 2000 |
| O=C(COc1ccc(Cl)c(F)c1)NC12CC(Nc3cc(N4CCOCC4)ccn3)(C1)C2 [Compound 963, 2-(4-chloro-3-fluorophenoxy)-N-(3-{[4-(morpholin-4-yl)pyridin-2-yl]amino}bicyclo[1.1.1]pentan-1-yl)acetamide] | > 2000 |
| COC(=O)c1ccnc(NC23CC(NC(=O)COc4ccc(Cl)c(F)c4)(C2)C3)c1 [Compound 964, methyl 2-({3-[2-(4-chloro-3-fluorophenoxy)acetamido]bicyclo[1.1.1]pentan-1-yl}amino)pyridine-4-carboxylate] | > 2000 |
| CCOC(=O)c1cncc(NC23CC(NC(=O)COc4ccc(Cl)c(F)c4)(C2)C3)c1 [Compound 965, ethyl 5-({3-[2-(4-chloro-3-fluorophenoxy)acetamido]bicyclo[1.1.1]pentan-1-yl}amino)pyridine-3-carboxylate] | 250 to 1000 |
| O=C(COc1ccc(Cl)c(F)c1)NC12CC(Nc3cnc4nccnc4c3)(C1)C2 [Compound 966, 2-(4-chloro-3-fluorophenoxy)-N-{3-[(pyrido[2,3-b]pyrazin-7-yl)amino]bicyclo[1.1.1]pentan-1-yl}acetamide] | 250 to 1000 |
